The results in this text go back to patent EP4523686A1, “A SIGMA-1 RECEPTOR POSITIVE MODULATOR FOR ITS USE IN THE PREVENTION AND THE TREATMENT OF A PATHOLOGY” (priority 2023, dated 2025).

Assay [1] relates to Dizocilpine-induced learning impairments in mice. In words: Spontaneous alternation in the Y-maze, Dizocilpine-induced learning impairments. The assay is classed as in vivo. Here is the method:
The Y-maze is made of grey polyvinylchloride. Each arm is 40 cm long, 13 cm high, 3 cm wide at the bottom, 10 cm wide at the top, and converging at an equal angle. Each mouse was placed at the end of one arm and allowed to move freely through the maze during an 8 min session. The series of arm entries, including possible returns into the same arm, were checked visually. An alternation is defined as entries into all three arms on consecutive occasions. The number of maximum alternations is therefore the total number of arm entries minus two and the percentage of alternation was calculated as (actual alternations / maximum alternations) × 100 (Maurice et al., 1996; Meunier et al., 2006, 2013). Exclusion criteria are locomotion < 10 or percentage of alternation < 25% or > 90%. Animals showing these readouts are excluded from the calculations. Attrition is routinely < 5% in this test.
Due to the chaperone nature of SIG-1R, a SIG-1R positive modulator behaves as an agonist in vivo, particularly on learning and memory abilities in mice (Maurice et al., 2019; Vavers et al., 2019). Convolamine was tested on Dizocilpine-induced learning impairments, a well-characterized SIG-1R-mediated response in mice (Maurice et al., 1994, 2001). The NMDA receptor noncompetitive antagonist Dizocilpine (0.15 mg/kg IP) prevented spontaneous alternation behavior (Fig. 4A) and increased mobility (Fig. 4B) in the Y-maze. […] Co-treatment with the SIG-1R antagonist NE-100 at 1 mg/kg IP, blocked the attenuating effect of Convolamine (Fig. 4C), thus confirming the SIG-1R-mediated effect.

Assay [2] is described as follows: Summary of the in vivo tests (active dose range). As to conditions: dizocilpine-induced amnesia and Aβ25-35 tests. From the text:
A characteristic of SIG-1R positive modulators, likely due to the chaperone nature of SIG-1R, is to behave in vivo as agonists (Vavers et al., 2019).

Consider `COc1ccc(C(=O)OC2CC3CCC(C2)N3C)cc1OC` (stereo not drawn) [Convolamine, (8-methyl-8-azabicyclo[3.2.1]octan-3-yl) 3,4-dimethoxybenzoate], for which, in assay [1] (0.1-1 mg/kg IP range, 10 min before Dizocilpine […] IP), the “Dizocilpine-induced alternation deficit (in words)” value was “attenuated, dose-dependently and significantly but in a bell-shaped manner”. Moreover, in assay [1] (Convolamine 1 mg/Kg IP with NE-100 at 1 mg/kg IP), the “attenuating effect of Convolamine on alternation deficit under NE-100 co-treatment (in words)” value is reported as “blocked”. In addition, the active dose in assay [2] lay within 0.3 to 3 mg/kg.
